# Reference: PMC3913610, “Antitumor Activity and Induction of TP53-Dependent Apoptosis toward Ovarian Clear Cell Adenocarcinoma by the Dual PI3K/mTOR Inhibitor DS-7423” (PLoS ONE, 2014)
# Experiments:
# PI3Kα = PI3Kα (Homo sapiens, UniProt P42336); test: PI3Kα inhibition; type: biochemical
# mTOR = mTOR (Homo sapiens, UniProt P42345); test: mTOR inhibition; type: biochemical
# PI3Kβ = PI3Kβ (Homo sapiens, UniProt P42338); test: PI3Kβ inhibition; type: biochemical
# PI3Kγ = PI3Kγ (Homo sapiens, UniProt P48736); test: PI3Kγ inhibition; type: biochemical
# PI3Kδ = PI3Kδ (Homo sapiens, UniProt O00329); test: PI3Kδ inhibition; type: biochemical
# 227 kinases = test: Kinase selectivity panel; type: biochemical; conditions: 227 kinases tested, except MLK1 and NEK2
# [1] = target: Mixed Lineage Kinase 1 (MLK1) (Homo sapiens, UniProt P80192); test: Kinase selectivity panel, MLK1; type: biochemical; conditions: MLK1, relevant activity observed
# [2] = target: Never-In-Mitosis Gene A (NIMA)-related kinase 2 (NEK2) (Homo sapiens, UniProt P51955); test: Kinase selectivity panel, NEK2; type: biochemical; conditions: NEK2, relevant activity observed
# nine OCCA cell lines = test: Proliferation (MTT/WST-8) assay, OCCA panel; type: cell-based; conditions: 156 nM, 72 h
# Procedure: (§1) Assays of the suppression of cell proliferation were performed with the Cell Counting Kit-8 using the tetrazolium salt WST-8 [2-(2-methoxy-4-nitrophenyl)-3-(4-nitrophenyl)-5-(2,4-disulfophenyl)-2H-tetrazolium, monosodium salt] (Dojindo, Tokyo, Japan) for the methyl thiazolyl tetrazolium (MTT) assay. […] Proliferation was quantified by monitoring the changes in the absorbance at 450 nm, which were normalized relative to the absorbance of cell cultures treated with DMSO alone.
# OVISE cells [3] = test: Proliferation (MTT/WST-8) assay; type: cell-based; conditions: siRNA to TP53, MTT assay
# Procedure: as §1
# seven OSA lines = test: Proliferation (MTT/WST-8) assay, OSA panel; type: cell-based; conditions: four of seven OSA cell lines
# Procedure: as §1
# [4] = system: phosphorylation of AKT, S6, FOXO1/3a in OCCA cells; test: Immunoblotting of PI3K/mTOR signaling in OCCA cells; type: cell-based
# From the text: Signals were detected using BioRAD western blotting systems (BioRAD, Hercules, CA) with the detection reagents ECL advance and ECL select (GE Healthcare, Piscataway, NJ).
# OCCA cells = test: Cell cycle analysis (flow cytometry), OCCA panel; type: cell-based; conditions: 48 h
# Procedure: Cells (5×10^5) were seeded in 60-mm dishes and treated with DS-7423 for 48 h. Floating and adherent cells were collected by trypsinization and washed twice with phosphate buffer saline (PBS). Cells were resuspended in cold 70% ethanol and maintained at 4°C overnight. After being washed twice with PBS, cells were incubated in RNase A (0.25 mg/mL) (Sigma) for 30 min at 37°C, followed by staining with propidium iodide (PI; 50 μg/mL) (Sigma) at 4°C for 30 min in the dark. Cells were then analyzed using flow cytometry (BD FACS Calibur HG, Franklin Lakes, NJ). Cell cycle distribution was analyzed using CELL Quest pro ver. 3.1. […]. All experiments were repeated three times.
# RMG-I xenografts = test: Tumor xenograft in nude mice; type: in vivo
# From the text: (§2) Specific pathogen-free female nude mice (BALB/cAJcl-nu/nu), 6 weeks old, were purchased from CLEA Japan, Inc (Tokyo, Japan). Subcutaneous xenograft tumors in the mice were established by the injection of a 100-μL suspension containing 5×10^6 cells of the TOV-21, RMG-I, or ES-2 lines in PBS. Tumors were removed after exponential growth, cut into 3-mm pieces, and transplanted subcutaneously into other mice for RMG-I cells. DS-7423 was suspended in 0.5 w/v% Methyl Cellulose 400 solution (Wako Pure Chemical Industries, Ltd.) Oral daily administration of DS-7423 started 8–22 days later, following the injection of the cells (5–6×10^6 cells/0.1 mL). One week after tumor transplantation, mice were assigned randomly to one of the […] treatment regimens: (1) non-treated control, (2) DS-7423 (1.5 mg/kg), (3) DS-7423 (3 mg/kg), and (4) DS-7423 (6 mg/kg). Each treatment group consisted of five mice. DS-7423 was injected orally (p.o.) once a day. Tumor volumes (in mm^3) were calculated by the formula: ([major axis] × [minor axis]^2/2). After the treatment, the tumors were removed and analyzed by western blotting. Tumor weight (wet weight) was measured, and the average weight was calculated for each group.
# TOV-21G xenografts = test: Tumor xenograft in nude mice; type: in vivo
# From the text: as §2
# ES-2 xenografts = test: Tumor xenograft in nude mice; type: in vivo
# From the text: as §2
# Supplementary file pone.0087220.s002.pptx: Figure S2 In vivo effect of DS-7423 in nude mice. […] The levels of p-Akt (Thr-308) and p-S6 (Ser-240/244) were assessed. […]
# OCCA cell lines = test: Apoptosis by annexin-V FITC/PI staining, OCCA panel; type: cell-based
# Procedure: (§3) Cells (5×10^5) were cultured in 60-mm plates for 24 h before treatment with either DMSO (control), and 156 nM DS-7423, or 2,500 nM DS-7423 for 48 h. Cells were trypsinized, washed twice with PBS, and then analyzed after double staining with annexin-V fluorescein isothiocyanate (FITC) (Abcam, Cambridge, MA) and PI. The apoptotic cell population was analyzed using flow cytometry. All experiments were performed three times.
# OVISE cells [5] = test: Apoptosis by annexin-V FITC/PI staining; type: cell-based
# Procedure: as §3
# Cells were plated at approximately 30% confluence in 100-mm plates and incubated for 24 h before transfection with small interfering RNA (siRNA) duplexes at the concentrations indicated, using Lipofectamine […] RNAiMAX (Invitrogen, Carlsbad, CA) and Opti-MEM medium (Life Technologies, Grand Island, NY). The siRNAs specific for TP53 were purchased from Invitrogen. A negative control kit was used as a control (Invitrogen, Carlsbad, CA).
# [6] = system: cleavage of PARP in OVMANA cells; test: Cleaved PARP immunoblotting; type: cell-based
# From the text: (§4) Antibodies to total Akt, phosphorylation of Akt (p-Akt) (Ser473, Thr308), p-GSK3beta (Ser9), total S6, p-S6 (Ser235/236, Ser 240/244), p-4EBP1 (Thr37/46), p-FOXO1 (Thr24), p-FOXO3a (Thr32), p-MDM2 (Ser 166), p-TP53 (Ser15), cleaved-PARP, and PARP (Cell Signaling Technology, Beverly, MA), beta-actin (Sigma-Aldrich, St. Louis, MO), TP53 (Santa Cruz, CA, USA) and p-TP53 (Ser46) (Calbiochem, Billerica, MA) were used for immunoblotting, as recommended by the manufacturers. Signals were detected using BioRAD western blotting systems (BioRAD, Hercules, CA) with the detection reagents ECL advance and ECL select (GE Healthcare, Piscataway, NJ).
# [7] = system: TP53-regulated genes in OVMANA and OVISE cells; test: Semi-quantitative RT-PCR of TP53 target genes; type: cell-based
# From the text: Total RNAs of these cells were extracted with the RNeasy Mini Kit according to the manufacturer's instructions (QIAGEN, Valencia, CA). cDNAs were synthesized from total RNAs by using the Super Script III First-strand Synthesis SuperMix (Invitrogen, Carlsbad, CA). The exponential phase of the RT-PCR occurred between 15–30 cycles, and these cycles were monitored to allow semi-quantitative comparisons among the cDNAs developed from identical reactions. The primers and conditions for the amplification of p53AIP1, p21, and GAPDH sequences were described previously. The PCR primers for PUMA were 5′-[…]-3′ (forward) and 5′-[…] CTC-3′ (reverse). The primers for p53R2, TIGAR, GLS2, GADD45, 14-3-3 sigma and PAI-1 were described previously [30]–[35]. Each PCR regimen involved a 2-min initial denaturation step (94°C), which was followed by 15–30 cycles at 94°C for 30 s, then at 55°C for 30 s, and finally, at 72°C for 30 s using a Thermal Cycler Gene Atlas instrument (ASTEC, Fukuoka, Japan).
# [8] = system: p-MDM2, p-TP53 in OVMANA cells; test: Immunoblotting of p-MDM2 and p-TP53; type: cell-based
# From the text: as §4
# JHOC-7 cells = test: Proliferation (MTT/WST-8) assay; type: cell-based; conditions: JHOC-7, 72 h
# Procedure: as §1
# OVMANA cells = test: Proliferation (MTT/WST-8) assay; type: cell-based; conditions: 72 h
# Procedure: as §1
# OVTOKO cells = test: Proliferation (MTT/WST-8) assay; type: cell-based; conditions: 72 h
# Procedure: as §1
# RMG-I cells = test: Proliferation (MTT/WST-8) assay; type: cell-based; conditions: Homo sapiens, RMG-1, 72 h
# Procedure: as §1
# SKOV3 cells = test: Proliferation (MTT/WST-8) assay; type: cell-based; conditions: Homo sapiens, SK-OV-3; SKOV3, 72 h
# Procedure: as §1
# recurrent OCCA = system: recurrent OCCA; parameters: method as in PMID 21243393; conditions: six cases, weekly administration, recurrent OCCA patients ref 39; cited from earlier work
# Sequence of Never-In-Mitosis Gene A (NIMA)-related kinase 2 (NEK2) (P51955 whole entry, species assumed): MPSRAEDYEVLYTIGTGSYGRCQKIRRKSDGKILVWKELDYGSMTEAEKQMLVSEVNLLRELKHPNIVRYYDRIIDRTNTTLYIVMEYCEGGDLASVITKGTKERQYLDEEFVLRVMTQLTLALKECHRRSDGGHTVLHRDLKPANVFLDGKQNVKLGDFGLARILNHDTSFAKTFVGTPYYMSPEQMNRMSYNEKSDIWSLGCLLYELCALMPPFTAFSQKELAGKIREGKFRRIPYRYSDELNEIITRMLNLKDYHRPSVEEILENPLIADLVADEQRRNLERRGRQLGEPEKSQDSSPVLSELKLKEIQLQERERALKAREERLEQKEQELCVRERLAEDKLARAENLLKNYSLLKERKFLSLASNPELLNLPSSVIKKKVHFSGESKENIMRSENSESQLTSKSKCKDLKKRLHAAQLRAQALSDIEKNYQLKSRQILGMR
# Sequence of Mixed Lineage Kinase 1 (MLK1) (P80192 whole entry, species assumed): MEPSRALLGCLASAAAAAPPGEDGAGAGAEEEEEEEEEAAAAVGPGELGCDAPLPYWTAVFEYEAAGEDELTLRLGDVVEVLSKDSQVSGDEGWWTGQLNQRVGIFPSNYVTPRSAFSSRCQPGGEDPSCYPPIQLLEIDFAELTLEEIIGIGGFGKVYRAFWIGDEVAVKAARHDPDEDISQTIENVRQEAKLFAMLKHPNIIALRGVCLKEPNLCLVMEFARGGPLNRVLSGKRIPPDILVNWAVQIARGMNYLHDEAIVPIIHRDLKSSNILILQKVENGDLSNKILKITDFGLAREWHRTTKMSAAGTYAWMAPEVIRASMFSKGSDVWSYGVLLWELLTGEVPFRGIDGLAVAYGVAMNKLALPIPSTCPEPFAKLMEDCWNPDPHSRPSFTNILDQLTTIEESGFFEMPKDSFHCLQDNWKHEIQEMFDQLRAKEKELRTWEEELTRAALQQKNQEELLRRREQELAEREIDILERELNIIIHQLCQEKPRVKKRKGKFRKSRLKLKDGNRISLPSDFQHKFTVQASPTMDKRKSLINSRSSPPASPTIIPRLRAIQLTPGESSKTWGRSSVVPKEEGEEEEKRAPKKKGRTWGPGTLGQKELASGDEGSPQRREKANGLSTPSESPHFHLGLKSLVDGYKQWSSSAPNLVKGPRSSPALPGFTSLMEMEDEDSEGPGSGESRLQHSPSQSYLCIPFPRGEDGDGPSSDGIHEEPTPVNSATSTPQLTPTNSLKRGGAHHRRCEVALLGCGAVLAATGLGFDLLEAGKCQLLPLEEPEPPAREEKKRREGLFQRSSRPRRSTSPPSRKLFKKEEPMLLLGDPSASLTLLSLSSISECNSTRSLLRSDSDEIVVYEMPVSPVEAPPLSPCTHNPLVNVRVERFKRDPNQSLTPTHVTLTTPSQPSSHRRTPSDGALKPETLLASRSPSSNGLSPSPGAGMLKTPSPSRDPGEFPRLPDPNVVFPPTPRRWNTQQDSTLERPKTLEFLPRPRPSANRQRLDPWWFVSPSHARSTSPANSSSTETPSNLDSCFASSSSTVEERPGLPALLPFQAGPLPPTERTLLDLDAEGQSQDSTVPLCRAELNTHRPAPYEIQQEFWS
# Sequence of PI3Kα (P42336 whole entry): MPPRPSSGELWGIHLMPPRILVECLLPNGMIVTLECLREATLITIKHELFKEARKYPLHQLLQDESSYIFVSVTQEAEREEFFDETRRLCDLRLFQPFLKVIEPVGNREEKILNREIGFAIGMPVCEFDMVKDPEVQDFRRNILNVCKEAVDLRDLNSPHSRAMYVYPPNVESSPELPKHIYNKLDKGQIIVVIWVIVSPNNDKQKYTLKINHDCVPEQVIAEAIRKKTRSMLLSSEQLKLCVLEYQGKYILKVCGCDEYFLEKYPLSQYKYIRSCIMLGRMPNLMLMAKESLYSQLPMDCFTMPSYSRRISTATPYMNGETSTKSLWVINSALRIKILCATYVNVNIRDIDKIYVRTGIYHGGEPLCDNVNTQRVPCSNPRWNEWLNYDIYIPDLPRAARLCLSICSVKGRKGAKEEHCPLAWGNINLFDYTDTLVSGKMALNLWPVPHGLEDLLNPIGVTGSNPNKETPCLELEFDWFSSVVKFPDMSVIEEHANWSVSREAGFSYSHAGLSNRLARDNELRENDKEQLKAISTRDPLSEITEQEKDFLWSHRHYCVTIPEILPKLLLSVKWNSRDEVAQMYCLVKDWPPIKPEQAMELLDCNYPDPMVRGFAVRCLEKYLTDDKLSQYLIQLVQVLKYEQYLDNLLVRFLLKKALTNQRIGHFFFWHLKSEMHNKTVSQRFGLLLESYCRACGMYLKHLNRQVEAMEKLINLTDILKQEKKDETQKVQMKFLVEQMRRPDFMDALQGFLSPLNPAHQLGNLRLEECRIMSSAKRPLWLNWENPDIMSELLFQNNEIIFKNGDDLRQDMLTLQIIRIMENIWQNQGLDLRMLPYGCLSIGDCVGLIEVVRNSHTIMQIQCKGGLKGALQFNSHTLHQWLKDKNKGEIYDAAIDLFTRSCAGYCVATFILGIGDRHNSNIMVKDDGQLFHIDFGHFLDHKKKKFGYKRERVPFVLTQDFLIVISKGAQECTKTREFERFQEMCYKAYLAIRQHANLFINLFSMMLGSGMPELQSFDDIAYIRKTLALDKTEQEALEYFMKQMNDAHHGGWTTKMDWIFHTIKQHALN
# Sequence of PI3Kα (P27986 whole entry partner): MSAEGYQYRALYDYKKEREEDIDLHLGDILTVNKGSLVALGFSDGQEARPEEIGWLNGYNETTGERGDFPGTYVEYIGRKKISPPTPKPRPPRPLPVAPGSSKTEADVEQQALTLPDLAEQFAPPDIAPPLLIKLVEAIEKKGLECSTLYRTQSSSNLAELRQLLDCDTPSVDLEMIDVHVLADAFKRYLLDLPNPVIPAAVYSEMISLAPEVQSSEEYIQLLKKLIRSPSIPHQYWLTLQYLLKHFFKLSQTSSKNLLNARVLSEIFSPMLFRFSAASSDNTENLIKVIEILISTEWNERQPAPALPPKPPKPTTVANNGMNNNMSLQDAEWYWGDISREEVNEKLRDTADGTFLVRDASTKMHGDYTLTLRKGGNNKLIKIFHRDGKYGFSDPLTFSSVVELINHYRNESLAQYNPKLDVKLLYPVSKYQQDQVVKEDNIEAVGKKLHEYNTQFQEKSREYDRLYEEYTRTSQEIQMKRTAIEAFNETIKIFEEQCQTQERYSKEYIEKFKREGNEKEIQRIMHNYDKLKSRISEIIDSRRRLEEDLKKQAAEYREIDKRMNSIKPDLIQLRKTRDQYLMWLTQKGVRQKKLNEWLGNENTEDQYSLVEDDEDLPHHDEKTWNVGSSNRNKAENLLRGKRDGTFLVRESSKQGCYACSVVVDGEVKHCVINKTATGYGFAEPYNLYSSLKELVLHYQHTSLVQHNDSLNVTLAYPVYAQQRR
# Sequence of PI3Kγ (P48736 whole entry): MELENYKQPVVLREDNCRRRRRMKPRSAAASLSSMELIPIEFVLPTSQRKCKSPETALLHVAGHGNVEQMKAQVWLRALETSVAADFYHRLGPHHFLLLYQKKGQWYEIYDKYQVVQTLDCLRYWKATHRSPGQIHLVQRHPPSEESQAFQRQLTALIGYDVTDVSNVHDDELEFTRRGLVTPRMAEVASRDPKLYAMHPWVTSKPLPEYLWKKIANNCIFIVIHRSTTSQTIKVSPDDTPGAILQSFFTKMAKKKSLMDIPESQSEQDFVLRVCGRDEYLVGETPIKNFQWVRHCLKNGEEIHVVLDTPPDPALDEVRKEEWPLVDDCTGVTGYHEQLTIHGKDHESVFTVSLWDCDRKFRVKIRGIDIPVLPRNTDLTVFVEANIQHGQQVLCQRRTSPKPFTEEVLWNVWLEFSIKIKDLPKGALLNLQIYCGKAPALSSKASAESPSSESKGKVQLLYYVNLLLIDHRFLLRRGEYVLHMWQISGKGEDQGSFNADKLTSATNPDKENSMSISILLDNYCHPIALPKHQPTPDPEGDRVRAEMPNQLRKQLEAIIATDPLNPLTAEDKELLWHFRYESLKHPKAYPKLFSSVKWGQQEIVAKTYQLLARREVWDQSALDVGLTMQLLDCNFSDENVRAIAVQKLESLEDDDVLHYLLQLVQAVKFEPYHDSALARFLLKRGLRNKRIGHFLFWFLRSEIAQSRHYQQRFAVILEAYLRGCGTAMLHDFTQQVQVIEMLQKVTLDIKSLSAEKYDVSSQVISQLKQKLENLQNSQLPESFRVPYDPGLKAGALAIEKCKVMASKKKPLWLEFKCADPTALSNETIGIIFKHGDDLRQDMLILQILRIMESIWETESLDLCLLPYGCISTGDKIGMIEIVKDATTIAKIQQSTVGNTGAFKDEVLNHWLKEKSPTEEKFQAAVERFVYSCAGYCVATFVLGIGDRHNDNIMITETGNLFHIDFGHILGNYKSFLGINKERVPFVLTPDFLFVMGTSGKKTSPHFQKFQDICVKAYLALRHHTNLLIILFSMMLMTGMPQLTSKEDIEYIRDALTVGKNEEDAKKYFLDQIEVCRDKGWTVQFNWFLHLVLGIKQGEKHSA
structure (smiles),measurement,setting,value
CC(=O)N1CCN(c2nc3c(N4CCOCC4)nc(-c4cnc(N)nc4)nc3n2CC(F)(F)F)C[C@H]1C [DS-7423],IC50,PI3Kα,15.6 nM
same,IC50,mTOR,34.9 nM
same,IC50,PI3Kβ,1140 nM
same,IC50,PI3Kγ,249 nM
same,IC50,PI3Kδ,262 nM
same,Relevant activity (IC50 <200 nM),227 kinases,not observed
same,IC50,[1],< 200 nM
same,IC50,[2],< 200 nM
same,inhibition of cell growth,nine OCCA cell lines,70%–97%
same,anti-proliferative effect when combined with knockdown of TP53,OVISE cells [3],significantly reduced
same,IC50,seven OSA lines,> 100 nM
same,doses suppressing phosphorylation of AKT (Thr308 and Ser473) and S6 (Ser235/236 and Ser240/244),"[4]; these doses and higher, OCCA cells",39 to 156 nM
same,size of the S-phase population,"OCCA cells; OCCA cells, change weak in ES-2",decreased
same,sizes of sub-G1 populations,OCCA cells; six of the nine cell lines,increased in a dose-dependent manner
same,"adverse effects, including body weight loss of more than 10%","RMG-I xenografts; RMG-I xenograft mice, oral daily 1.5, 3 or 6 mg/kg",No significant adverse effects
same,levels of p-AKT (Thr308) and p-S6 (Ser240/244) in xenografts,"RMG-I xenografts; RMG-I xenografts, 2 and 6 h after last administration",suppressed
same,tumor growth of xenografts,"RMG-I xenografts; RMG-I, oral daily 1.5, 3 or 6 mg/kg, dose-dependent",significantly suppressed
same,"adverse effects, including body weight loss of more than 10%","TOV-21G xenografts; TOV-21G xenograft mice, oral daily 1.5, 3 or 6 mg/kg",No significant adverse effects
same,levels of p-AKT (Thr308) and p-S6 (Ser240/244) in xenografts,"TOV-21G xenografts; TOV-21G xenografts, 2 and 6 h after last administration",suppressed
same,tumor growth of xenografts,"TOV-21G xenografts; TOV-21G, oral daily 1.5, 3 or 6 mg/kg, dose-dependent",significantly suppressed
same,anti-tumor effect compared with TOV-21G and RMG-I xenografts,ES-2 xenografts,weaker
same,estimated tumor volumes compared to the control,"ES-2 xenografts; 6 mg/kg daily, totally 8 times",smaller
same,apoptosis (annexin-V FITC/PI),"OCCA cell lines; 156 nM, 48 h, five of the six cell lines that lacked mutations in TP53",4–12%
same,apoptosis (annexin-V FITC/PI),"OCCA cell lines; 2,500 nM, 48 h, five cell lines without TP53 mutations",10–16%
same,ratio of apoptotic cells,OCCA cell lines; even at high concentrations,less than 20%
same,apoptosis (annexin-V FITC/PI),"OCCA cell lines; three cell lines with TP53 mutations, any of the doses tested",≤ 5%
same,percentage of apoptotic cells compared with rapamycin,OVISE cells [5]; OVISE cells,significantly higher
same,apoptotic cell death after knockdown of TP53,"OVISE cells [5]; OVISE, TP53 siRNA, 156 or 2,500 nM, 48 h",rescued
same,concentration at which induction of cleaved-PARP was observed,"[6]; 4 h, dose-dependent up to 2,500 nM",39 nM
same,time to cleavage of PARP,"[6]; OVMANA cells without mutations in TP53, 156 nM",≤ 2 h
same,expression of p21,"[7]; 39, 156, and 2,500 nM, 24 h",did not induce
same,expression of GADD45,[7]; OVISE cells,significantly induced
same,doses inducing expression of p53AIP1 and PUMA,"[7]; OVMANA and OVISE cells, 24 h",≥ 39 nM
same,expression of TIGAR,[7]; OVMANA cells,decreased
same,"doses clearly inducing p-TP53 (Ser46), not p-TP53 (Ser15)",[8]; OVMANA cells,"156–2,500 nM"
same,level of p-MDM2,[8]; dose-dependent,reduced
CO[C@H]1C[C@@H]2CC[C@@H](C)[C@@](O)(O2)C(=O)C(=O)N2CCCC[C@H]2C(=O)O[C@H]([C@H](C)C[C@@H]2CC[C@@H](O)[C@H](OC)C2)CC(=O)[C@H](C)/C=C(\C)[C@@H](O)[C@@H](OC)C(=O)[C@H](C)C[C@H](C)/C=C/C=C/C=C/1C [rapamycin],IC50,JHOC-7 cells,> 2560 nM
same,IC50,OVMANA cells,> 2560 nM
same,IC50,OVTOKO cells,> 2560 nM
same,IC50,RMG-I cells,> 2560 nM
same,IC50,SKOV3 cells,> 2560 nM
same,levels of p-FOXO3a and p-FOXO1,"[4]; 2,500 nM, OVISE",increased
same,suppression of p-Akt,"[4]; any dose (0 to 2,500 nM), OVISE",did not suppress
same,apoptotic cell death,"OCCA cell lines; OCCA cells, even at 2,500 nM",≤ 5%
CO[C@H]1C[C@@H]2CC[C@@H](C)[C@@](O)(O2)C(=O)C(=O)N2CCCC[C@H]2C(=O)O[C@H]([C@H](C)C[C@@H]2CC[C@@H](OC(=O)C(C)(CO)CO)[C@H](OC)C2)CC(=O)[C@H](C)/C=C(\C)[C@@H](O)[C@@H](OC)C(=O)[C@H](C)C[C@H](C)/C=C/C=C/C=C/1C [temsirolimus],clinical response,recurrent OCCA,partial response in one patient and stable disease in another patient
